Values after ≈ are worked out from the molar mass of the structure shown.
Assays:
[1] = system: HCT-15; assay: Antiproliferative activity against the MDR positive human colon adenocarcinoma cell line HCT-15; format: functional, cell-based
[2] = Oral bioavailability in rat (dose single 10 mg/kg); format: ADME, organism-based; conditions: in vivo
[3] = system: NCI-H460; assay: Antiproliferative activity against the human non small cell lung carcinoma cell line NCI-H460; format: functional, cell-based
[4] = organism: Bos taurus; assay: (§1) Inhibition of bovine brain microtubule polymerization; format: functional
[5] = Half life period in rat after 5 mg/kg dose; format: ADME, organism-based; set-up: dose 5 mg/kg; conditions: in vivo
[6] = pKa of the compound; format: physicochemical
[7] = Solubility of compound in pH 7.4 phosphate buffer; format: physicochemical
[8] = as §1; format: functional, Bos taurus
[9] = Oral bioavailability in monkey (dose 5 mg/kg); format: ADME, organism-based; conditions: cercopithecidae, in vivo
[10] = system: HCT-15; assay: Inhibitory concentration of compound against of microtubule […] in human HCT-15 colon carcinoma; format: functional, cell-based
[11] = system: Mus musculus; assay: Increase in life span of M5076 murine ovarian sarcoma bearing mice at a dose of 50 mg/Kg/day; format: functional
[12] = system: Mus musculus; assay: In vivo efficacy to delay 1 g volume of M5076 murine ovarian sarcoma formation in mice at a dose of 100 mg/Kg/day; format: functional
[13] = Oral bioavailability in rat (dose 5 mg/kg; format: ADME, organism-based; conditions: in vivo
[14] = Oral bioavailability in mouse (dose 10 mg/kg); format: ADME, organism-based; conditions: in vivo
[15] = Oral bioavailability in dog (dose 5 mg/kg); format: ADME, organism-based, Canis lupus familiaris; conditions: in vivo
[16] = Area under curve value in mouse at a dose of 10 mg/kg; format: ADME, organism-based; set-up: dose 10 mg/kg; conditions: in vivo
[17] = Area under curve value in rat at a dose of 5 mg/kg; format: ADME, organism-based; set-up: dose 5 mg/kg; conditions: in vivo
[18] = Half life period in mouse after 10 mg/kg dose; format: ADME, organism-based; set-up: dose 10 mg/kg; conditions: in vivo
[19] = system: Mus musculus; assay: Increase in life span of M5076 murine ovarian sarcoma bearing mice at a dose of 100 mg/kg/day; format: functional
[20] = Area under curve value in dog at a dose of 5 mg/kg; format: ADME, organism-based, Canis lupus familiaris; set-up: dose 5 mg/kg; conditions: in vivo
[21] = system: Mus musculus; assay: In vivo efficacy to delay 1 g volume of M5076 murine ovarian sarcoma formation in mice at a dose of 50 mg/Kg/day; format: functional
[22] = Partition coefficient of compound; format: physicochemical; conditions: octanol/water
[23] = Half life period in monkey after 5 mg/kg dose; format: ADME, organism-based; set-up: dose 5 mg/kg; conditions: cercopithecidae, in vivo
[24] = Half life period in dog after 5 mg/kg dose; format: ADME, organism-based, Canis lupus familiaris; set-up: dose 5 mg/kg; conditions: in vivo
[25] = Solubility of compound in 0.1 M HCl; format: physicochemical; conditions: read-out: S
[26] = Area under curve value in monkey at a dose of 5 mg/kg; format: ADME, organism-based; set-up: dose 5 mg/kg; conditions: cercopithecidae, in vivo
[27] = system: A549; assay: Activity against human lung cancer with mutated beta-tubulin (A549-T2415); format: functional, cell-based
[28] = Half life period in mouse after 10 mg/Kg dose; format: ADME, organism-based; conditions: in vivo
[29] = Half life period in rat after 5 mg/Kg dose; format: ADME, organism-based; conditions: in vivo
[30] = molecular target: T1, Tubulin beta chain (Bos taurus, UniProt Q6B856); assay: Activity towards binding at colchicine site of bovine brain tubulin
[31] = molecular target: T1, Tubulin beta chain; assay: Binding constant at colchicine site of bovine brain tubulin

T1 sequence (Q6B856 whole entry): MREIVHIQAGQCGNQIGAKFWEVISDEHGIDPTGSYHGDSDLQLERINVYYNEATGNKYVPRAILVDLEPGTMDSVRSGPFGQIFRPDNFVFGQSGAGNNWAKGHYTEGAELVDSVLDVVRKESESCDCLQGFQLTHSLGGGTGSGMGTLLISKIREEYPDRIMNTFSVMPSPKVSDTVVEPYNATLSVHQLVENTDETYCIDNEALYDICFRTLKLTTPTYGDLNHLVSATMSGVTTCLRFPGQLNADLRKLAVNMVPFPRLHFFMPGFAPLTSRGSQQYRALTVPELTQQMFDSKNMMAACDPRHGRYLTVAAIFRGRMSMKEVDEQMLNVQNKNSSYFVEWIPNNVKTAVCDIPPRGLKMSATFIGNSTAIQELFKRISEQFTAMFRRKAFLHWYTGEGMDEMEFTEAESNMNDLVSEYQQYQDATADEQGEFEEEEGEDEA

## COc1cc(C2CN=C(c3c[nH]c4ccccc34)O2)cc(OC)c1OC (centres undefined)
[1]
  IC50: 67 nM
[2]
  bioavailability: 0%
[3]
  IC50: 82 nM

## COc1ccc(/C=C\c2cc(OC)c(OC)c(OC)c2)cc1O [COMBRETASTATIN A4]
[4]
  IC50: 1600 nM

## COc1cc([C@H]2CN=C(c3ccc4c(ccn4C)c3)O2)cc(OC)c1OC
[5]
  half-life: 2.1 h
[6]
  pKa: 5
[7]
  solubility: 0.7 µg/mL (≈ 1.91 µM)
[8]
  IC50: 2300 nM
[9]
  bioavailability: 18.6%
[1]
  IC50: 8.6 nM
[10]
  Concentration: 44 nM
[11]
  ILS at 50 mg/kg/day: 139%
[12]
  Mean tumor delay: 28.4 days
[13]
  bioavailability: 17.1%
[14]
  bioavailability: 15.1%
[15]
  bioavailability: 6.5%
[16]
  AUC: 5690 ng·h/mL
[17]
  AUC: 7180 ng·h/mL
[18]
  half-life: 1.1 h
[19]
  ILS at 100 mg/kg/day: 206%
[3]
  IC50: 6.2 nM
[20]
  AUC: 160 ng·h/mL
[21]
  Mean tumor delay: 19 days
[22]
  logD: 3.94
[23]
  half-life: 1.3 h
[24]
  half-life: 3.3 h
[25]
  solubility: 1270 µg/mL (≈ 3470 µM)
[26]
  AUC: 1750 ng·h/mL
[27]
  IC50: 6.3 nM

## COc1cc(C2CN=C(c3ccc4cc[nH]c4c3)O2)cc(OC)c1OC (centres undefined)
[1]
  IC50: 120 nM
[2]
  bioavailability: 10.5%
[3]
  IC50: 330 nM

## COc1cc(C2CN=C(c3ccc4ccn(C)c4c3)O2)cc(OC)c1OC (centres undefined)
[1]
  IC50: 280 nM
[2]
  bioavailability: 0%
[3]
  IC50: 420 nM

## COc1cc(C2CN=C(c3ccc4c(c3)nc(C)n4C)O2)cc(OC)c1OC (centres undefined)
[1]
  IC50: 1300 nM
[3]
  IC50: 1200 nM

## COc1cc(C2CN=C(c3ccc4[nH]ccc4c3)O2)cc(OC)c1OC (centres undefined)
[1]
  IC50: 200 nM
[2]
  bioavailability: 38.1%
[3]
  IC50: 100 nM

## COc1cc(C2CN=C(c3ccc4nccn4c3)O2)cc(OC)c1OC (centres undefined)
[1]
  IC50: 40000 nM
[3]
  IC50: 16000 nM

## COc1cc(C2CN=C(c3ccc4cc(C)cn4c3)O2)cc(OC)c1OC (centres undefined)
[1]
  IC50: 520 nM
[3]
  IC50: 520 nM

## COc1cc(C2CN=C(c3cc4ccccc4n3C)O2)cc(OC)c1OC (centres undefined)
[1]
  IC50: 660 nM
[3]
  IC50: 1500 nM

## COc1cc(C2CN=C(c3ccc4[nH]c(O)nc4c3)O2)cc(OC)c1OC (centres undefined)
[1]
  IC50: 1200 nM
[3]
  IC50: > 100000 nM

## COc1cc(C2CN=C(c3cnc4ccccc4c3)O2)cc(OC)c1OC (centres undefined)
[1]
  IC50: 160000 nM
[3]
  IC50: 270000 nM

## COc1cc(C2CN=C(c3ccc4c(ccn4C4CC4)c3)O2)cc(OC)c1OC (centres undefined)
[1]
  IC50: 2900 nM
[2]
  bioavailability: 55.8%
[3]
  IC50: 2900 nM

## COc1cc(C2CN=C(c3cn(C)c4ccccc34)O2)cc(OC)c1OC (centres undefined)
[1]
  IC50: 37 nM
[2]
  bioavailability: 2.5%
[3]
  IC50: 87 nM

## CCn1ccc2cc(C3=NCC(c4cc(OC)c(OC)c(OC)c4)O3)ccc21 (centres undefined)
[1]
  IC50: 70 nM
[2]
  bioavailability: 11.1%
[3]
  IC50: 49 nM

## CC(=O)O[C@H]1C(=O)[C@@]2(C)[C@H]([C@H](OC(=O)c3ccccc3)[C@]3(O)C[C@H](OC(=O)[C@H](O)[C@@H](NC(=O)c4ccccc4)c4ccccc4)C(C)=C1C3(C)C)[C@]1(OC(C)=O)CO[C@@H]1C[C@@H]2O [PACLITAXEL]
[3]
  IC50: > 10 nM

## COc1cc([C@@H]2CN=C(c3ccc4c(ccn4C)c3)O2)cc(OC)c1OC
[8]
  IC50: 740000 nM
[28]
  half-life: 1.3 h
[9]
  bioavailability: 16.2%
[29]
  half-life: 1.3 h
[1]
  IC50: 390 nM
[13]
  bioavailability: 44%
[14]
  bioavailability: 21%
[15]
  bioavailability: 7%
[16]
  AUC: 400 ng·h/mL
[17]
  AUC: 3040 ng·h/mL
[3]
  IC50: 460 nM
[20]
  AUC: 330 ng·h/mL
[23]
  half-life: 1.4 h
[24]
  half-life: 2.9 h
[26]
  AUC: 890 ng·h/mL

## COc1cc(C2CN=C(c3ccc4c(ccn4CC(F)(F)F)c3)O2)cc(OC)c1OC (centres undefined)
[1]
  IC50: 3800 nM
[2]
  bioavailability: 19.8%
[3]
  IC50: 4200 nM

## COc1cc(C2CN=C(c3cccc4cc[nH]c34)O2)cc(OC)c1OC (centres undefined)
[1]
  IC50: 540 nM
[2]
  bioavailability: 0%
[3]
  IC50: 470 nM

## COc1cc(C2CN=C(c3cccc4[nH]ccc34)O2)cc(OC)c1OC (centres undefined)
[1]
  IC50: 61 nM
[2]
  bioavailability: 0%
[3]
  IC50: 57 nM

## COc1cc(C2CN=C(c3ccc4c(ccn4S(C)(=O)=O)c3)O2)cc(OC)c1OC (centres undefined)
[1]
  IC50: 16300 nM
[3]
  IC50: 8180 nM

## COc1cc(C2CN=C(c3ccc4[nH]cnc4c3)O2)cc(OC)c1OC (centres undefined)
[1]
  IC50: 6400 nM
[3]
  IC50: 7100 nM

## COc1cc(C2CN=C(c3cccc4c3ccn4C)O2)cc(OC)c1OC (centres undefined)
[1]
  IC50: 37 nM
[2]
  bioavailability: 2.5%
[3]
  IC50: 87 nM

## COc1cc(C2CN=C(c3cccc4ccn(C)c34)O2)cc(OC)c1OC (centres undefined)
[1]
  IC50: 15000 nM
[3]
  IC50: 150000 nM

## COc1cc(C2CN=C(c3ccc4ncccc4c3)O2)cc(OC)c1OC (centres undefined)
[1]
  IC50: 2400 nM
[3]
  IC50: 3200 nM

## COc1cc2c(c(OC)c1OC)-c1ccc(OC)c(=O)cc1[C@@H](NC(C)=O)CC2 [COLCHICINE]
[1]
  IC50: 140 nM
[3]
  IC50: 46 nM

## COc1cc(C2CN=C(c3ccc4c(c3)cc(C)n4C)O2)cc(OC)c1OC (centres undefined)
[1]
  IC50: 170 nM
[3]
  IC50: 210 nM

## COc1cc(C2CN=C(c3cc4ccccc4[nH]3)O2)cc(OC)c1OC (centres undefined)
[1]
  IC50: 150 nM
[2]
  bioavailability: 40%
[3]
  IC50: 350 nM

## COc1cc(C2OC(c3ccc(N)c(C)c3)=NN2C(C)=O)cc(OC)c1OC (centres undefined)
[30]
  IC50: 3400 nM

## COc1cc(C2CN=C(c3ccnc4ccccc34)O2)cc(OC)c1OC (centres undefined)
[1]
  IC50: 44000 nM
[3]
  IC50: 37000 nM

## CC[C@]1(O)C[C@@H]2CN(CCc3c([nH]c4ccccc34)[C@@](C(=O)OC)(c3cc4c(cc3OC)N(C)[C@H]3[C@@](O)(C(=O)OC)[C@H](OC(C)=O)[C@]5(CC)C=CCN6CC[C@]43[C@@H]65)C2)C1 [VINBLASTINE]
[31]
  Ki: > 100000 nM
[8]
  IC50: 1000 nM
[1]
  IC50: 43 nM
[3]
  IC50: 3.4 nM

## COc1cc(C2CN=C(c3ccc4c(c3)CCN4C)O2)cc(OC)c1OC (centres undefined)
[1]
  IC50: 510 nM
[3]
  IC50: 810 nM

## COc1cc(C2CN=C(c3ccc4cncn4c3)O2)cc(OC)c1OC (centres undefined)
[1]
  IC50: 28000 nM
[3]
  IC50: 100000 nM

## COCn1ccc2cc(C3=NCC(c4cc(OC)c(OC)c(OC)c4)O3)ccc21 (centres undefined)
[1]
  IC50: 480 nM
[2]
  bioavailability: 34.3%
[3]
  IC50: 680 nM

## COc1cc(C2CN=C(c3ccc4c(ccn4C)c3)O2)cc(OC)c1OC (centres undefined)
[1]
  IC50: 16 nM
[2]
  bioavailability: 34.7%
[3]
  IC50: 14 nM
